Assay results: patent publication US5861417A, “Heterocyclic substituted pyrrolidine amide derivatives” (Hoechst Marion Roussel, Inc., priority 1997, dated 1999)

Legend:
[1] = Metabolic Stability in Guinea Pig Liver S9; assay type: in vitro ADME; settings: guinea pig liver S9, 10 μM initial, 37° C.
Method: (§1) Evaluation of metabolism in human and guinea pig liver
(§2) One skilled in the art can determine the metabolic stability for the compounds of the present invention by determining the rate of disappearance of the test compound in vitro in liver extracts. Metabolic stability is inversely related to the rate of metabolism which can be evaluated by determining the rate of disappearance of the test compounds during the initial linear phase of this assay.
(§3) This method is carried out using either S9 or S10 liver supernatant obtained from either guinea pig or human liver. Guinea pig liver S9 can be purchased from Vitro Technologies, Baltimore, Md. and human liver S9 can be purchased from IIAM, Eaton Pa. Both guinea pig and human S10 supernatant can be prepared as follows: Combine weighed liver (fresh or stored at -80° C. until use) and 1.15% aqueous potassium chloride solution (10-15 mL) and homogenize using a PCU Poltron from Kinematics of Switzerland or equivalent. Combine the homogenate with 1.15% aqueous potassium chloride solution, sufficient so that 3 mL of solution (total) is used per […] of liver, and mix. Store the above homogenate on ice at all times prior to use and at -80° C. for long term storage.
(§4) Centrifuge a 20 mL volume of the homogenate at 12,500 rpm (10,000×gravity) at 3° C. After 20 minutes, remove the cover of white lipid protein, if present, and transfer the supernatant to a clean centrifuge tube. Centrifuge the supernatant at 12,500 (10,000×gravity) at 3° C. for 20 minutes before transfer to a clean storage vessel to give the S10 supernatant. Store the S10 supernatant on ice or at -80° C. for long term storage.
(§5) Prepare a stock solution of each test compound in methanol, such that 0.1 mL of the stock solution when spiked into 16 mL of incubation mixture yields an initial concentration of 10 μM of the test compound. Using this method the methanol content of the final incubation mixture will not exceed 1%.
(§6) Prepare the incubation mixture by combining in an incubation beaker S9 or S10 supernatant (4 mL); an aqueous solution containing 1.1 mM NADP, […] (4 units/2 mL)(0.32 mL); and an aqueous 0.1M dipotassium monohydrogen phosphate solution (7.58 mL). Incubate the test compound by adding 0.1 mL of the stock solution of test compound to an incubation mixture, placed in a shaking water bath at 37° C.
(§7) To determine the rate of disappearance of test compounds in this assay, remove triplicate aliquots (0.5 mL) from the incubation beaker at 1, 3, 5, 10, 15, 30, and 60 minutes. Freeze all aliquots in a hexane/dry-ice slurry to instantly deactivate the enzymes. Store at -70° C. until assayed. The concentration of test compound in each aliquot is determined by HPLC after preparation and as compared to a standard concentration of test compound, such preparations and determinations are well known and appreciated in the art. The rate of disappearance can be determined from the slope of the initial linear phase of this assay by graphing the change in concentration of test compound vs. time.
(§8) Calibration standards for Compound A were prepared as follows: dissolve 10 mg of Compound A (free base) in methanol (10 mL) to give a 1 mg/mL stock solution. Use acetonitrile to dilute 1 mL of stock solution to 10 mL to give a 100 μg/mL spiking standard and serially dilute the 100 μg/mL solution with acetonitrile to give spiking standards having concentrations of 50, 25, 10, 5, 2.5, and 1.0 μg/mL. Calibration standards having concentrations of 10,000; 5,000; 2,500; 1,000; 500; 250; and 100 ng/mL are prepared in duplicated by adding 20 μL of each spiking standards to 0.2 mL of control S9 supernatant. Blanks and samples each receive 20μL of acetonitrile. […]

[2] = Metabolic Stability in Human Liver S9; assay type: in vitro ADME; settings: human liver S9, 10 μM initial, 37° C.
Method: as §1, §2, §3, §4, §5, §6, §7, §8

Compound `COc1cc(C(=O)N2CCC(CCN3CCC(C(N)=O)(c4ccccc4)CC3)(c3ccc(Cl)c(Cl)c3)C2)cc(OC)c1OC.Cl` (single isomer, unassigned; (+)) [Compound C, (+)-1-(2-(3-(3,4-dichloro-phenyl)-1-(3,4,5-trimethoxy-benzoyl)-pyrrolidin-3-yl)-ethyl)-4-phenyl-piperidine-4-carboxylic acid amide hydrochloride] has a concentration ([1]; 1 min) of 6.3 µg/mL, a concentration ([1]; 3 min) of 6.0 µg/mL and a concentration ([1]; 5 min) of 5.3 µg/mL. For the same compound, the concentration ([1]; 10 min) was 4.8 µg/mL, the concentration ([1]; 15 min) was 4.0 µg/mL and the concentration ([1]; 30 min) was 3.8 µg/mL. The concentration ([1]; 60 min) was 3.5 µg/mL, the concentration ([2]; 1 min) was 6.2 µg/mL and the concentration ([2]; 3 min) was 5.6 µg/mL. The concentration ([2]; 5 min) was 5.9 µg/mL, the concentration ([2]; 10 min) was 5.2 µg/mL and the concentration ([2]; 15 min) was 4.5 µg/mL. For the same compound, the concentration ([2]; 30 min) was 3.2 µg/mL and the concentration ([2]; 60 min) was 2.5 µg/mL.
